According to publication PMC4010497, “Synthesis and Evaluation of Fluorine-Substituted Phenyl Acetate Derivatives as Ultra-Short Recovery Sedative/Hypnotic Agents” (PLoS ONE, 2014):

Key:
[1] = test system: mice; experiment: animal or person; assay type: in vivo; conditions: mice
Procedure: All tests were performed during the light period. Groups of mice, rats and rabbits were injected intravenously (lateral tail vein) over 10 s with each dose of test compound, placed in separate boxes to reduce external stimuli and assessed for the loss of righting reflex. Dosing was performed using mg/kg scheme. A set of dose levels was chosen, and depending on whether the loss of righting reflex was observed, extra doses were introduced to provide data for the loss of righting reflex over a narrow dose range to allow potency calculations. From the percentage of mice, rats and rabbits in each group showing loss of righting reflex for ≥30 s, a probit analysis (SAS Institute) was performed to obtain an HD50 for each compound with 95% confidence limits.
Immediately following the injection, the mice, rats and rabbits were tested for loss of righting reflex. […] Once a loss was observed, the interval between the loss of righting reflex and the return to righting reflex was recorded. The anesthetized animals recovered righting reflexes spontaneously. To compare the duration of LORR of each compound at equipotent doses, groups of mice, rats and rabbits were injected with each compound at 2× HD50 over 10 s.
Time to walk was the time required after righting before mice and rabbits walked from the center to the periphery of a 30-cm diameter dise.
The rotarod test was conducted to evaluate the recovery to the motor coordination. Before the LORR test, mice were trained for 2 consecutive days. Trained mice could maintain their balance on rod for more than 2 mins. After the mice could walk from the center to the periphery of a 30-cm diameter dise, they were put on the rotarod. Mice were classified as behavioral recovery when, on being placed on the rod, they could maintain their balance for 20 s. The time to behavioral recovery was the time required after mice walked from the centre to the periphery of a 30-cm diameter disc before they could maintain their balance on rod for 20 s.

[2] = In vitro metabolic half-life in monkey whole blood; assay type: in vitro ADME; conditions: male, Cynomolgus monkey (n = 3), 37°C, read-out: Mean t1/2 Value
Procedure: Human whole blood stability experiments were conducted in whole blood from four human donors (male, 18–25 years). Single experiments were conducted with pooled blood from Sprague-Dawley rats (male, 8 weeks, n = 3), New Zealand White rabbits (male, 8–10 weeks, n = 3), Beagle dogs (male, 2–3 years, n = 3) and Cynomolgus monkeys (male, 3–4 years, n = 3). All the blood samples were provided by Xuzhou Medical College. A 1.35-ml aliquot of blood was warmed at 37°C for 5 min and hypnotic (from a 40 mM stock in DMSO solution) was added to a final concentration of 200 µM. After the specified incubation time, a 150-µl sample was removed and the metabolic reaction was quenched using 150-µl acetonitrile. Zero time-point samples were prepared by adding 150-µl acetonitrile (using a 4 mM stock in DMSO) to 150-µl blood before addition of the hypnotic. The quenched samples were centrifuged, and the supernatant was separated and stored at −20°C until analyzed. Hypnotic concentrations in thawed samples were determined by high-performance liquid chromatography using a 3-µm phenyl 4.6×50-mm C-A-25, ACE column with the UV detector set at 240 nm. […] The lower limit of quantitation of this assay is 3 µM and the accuracy within 15% at 10 µM. The metabolic half-lives were quantified from the incubation time-dependent change in drug concentration.

[3] = test system: GABAA and dopamine D2, D3, H1, 5HT1A, 5HT2A, 5HT2C, 5HTT, α1 and α2 receptors; conditions: 50 µmol, GABAA vs off-target receptors
Procedure: All the new compounds were dissolved in 5% DMSO.
Total binding was determined in the absence of no-specific binding and compounds. Specific binding was determined in the presence of compounds. […]
Rat cerebral cortex was homogenized in 20 volumes of ice-cold Tris-HCl buffer (50 mM, pH 7.7) using an ULTRA TURAX homogeniser, and was then centrifuged at 32000 g for 10 min. […] The final pellet was resuspended in Tris-HCl buffer containing 10 µM Pargyline, 4 mM CaCl2 and 0.1% ascorbic acid. […] The incubation was followed by a rapid vacuum filtration through Whatman GF/B glass filters, and the filtrates were washed twice with 5 mL cold buffer and transferred to scintillation vials. Scintillation fluid (3.0 mL) was added and the radioactivity bound was measured using a Beckman LS 6500 liquid scintillation counter.
Rat cerebral cortex was homogenized in 20 volumes of ice-cold Tris-HCl buffer (50 mM, pH 7.7) using an ULTRA TURAX homogeniser, and centrifuged at 32000 g for 20 min. The resulting pellet was resuspended in the same quantity of the buffer centrifuged for 20 min. […] Scintillation fluid (3.0 mL) was added and the radioactivity bound was measured using a Beckman LS 6500 liquid scintillation counter.
The resulting pellet was resuspended in the same quantity of the buffer centrifuged for 20 min.

[4] = test system: rabbits; experiment: Hypnosis in response to IV infusion in rabbits; assay type: in vivo, rabbit
Procedure: Induction of hypnosis in rabbits was achieved using 2× HD50 dose of test compound, and immediately after induction, infusion via the tail vein was commenced at half the HD50 dosage per min. the infusion rate was maintained for 20 min or 1 h or 3 h later. The depth of hypnosis was monitored by the magnitude of a withdrawal reflex to intermittent paw pinch provided by a pair of forceps.

[5] = Octanol:water partition coefficient; assay type: physicochemical; conditions: water buffered with 10 mm Tris (pH 7.4)
Procedure: One mg of each hypnotic was added to 10 ml of water buffered with 10 mm Tris (pH 7.4) and 1 ml of octanol. The mixture was stirred overnight and then centrifuged to fully separate the organic and aqueous phases. The relative hypnotic concentration in each phase (i.e., the partition coefficient) was determined by high-performance liquid chromatography as described for blood.

CCOc1cc(CC(=O)OCC(F)(F)F)ccc1OCC(=O)N(CC)CC [Compound 5j, 2,2,2-trifluoroethyl 2-(4-(2-(diethylamino)-2-oxoethoxy)-3-ethoxyphenyl)acetate]
ED50 ([1]; Mus musculus, IV over 10 s, 95% confidence limits, read-out: HD50 (the source's name)): 24.6 mg/kg | Time to walk ([1]; 2× HD50): 17.3 ± 5.8 s | time to behavioral recovery ([1]; 2× HD50, rotarod): 28.2 ± 6.4 s | Duration of LORR ([1]; IV 2× HD50, mean ± SD (n = 10)): 59.1 ± 7.4 s | Onset time ([1]; IV, mean ± SD (n = 10)): 5.3 ± 1.2 s | half-life at 200 µM [2]: 48.9 ± 8.8 min | binding selectivity profile [3]: selective binding to the GABAA receptor | duration of LORR after cessation of infusion ([4]; 1-h IV infusion): 125.8 ± 57.6 s | duration of LORR after cessation of infusion ([4]; 3-h IV infusion): 132.9 ± 56.2 s | time to walk after infusion ([4]; 20-min IV infusion): 15.5 ± 7.55 s | duration of LORR after cessation of infusion ([4]; 20-min IV infusion at half the HD50 per min after 2× HD50 induction): 117.5 ± 47.2 s | Octanol:Water Partition (Coefficient ± SD) [5]: 648±36
